# Source: patent US20110263610A1, “COMPOUNDS AND COMPOSITIONS AS ITPKB INHIBITORS” (IRM LLC, priority 2008, published 2011)
# Target: T1, ITPKb (Mus musculus, UniProt B2RXC2)
# T1 construct: murine ITPKb residues 640-942; MGSDKIHHHHHH (His6 tag from MH4 plasmid) (N); made in house; host or cells: Escherichia coli HK100
# T1 sequence (B2RXC2 640-942): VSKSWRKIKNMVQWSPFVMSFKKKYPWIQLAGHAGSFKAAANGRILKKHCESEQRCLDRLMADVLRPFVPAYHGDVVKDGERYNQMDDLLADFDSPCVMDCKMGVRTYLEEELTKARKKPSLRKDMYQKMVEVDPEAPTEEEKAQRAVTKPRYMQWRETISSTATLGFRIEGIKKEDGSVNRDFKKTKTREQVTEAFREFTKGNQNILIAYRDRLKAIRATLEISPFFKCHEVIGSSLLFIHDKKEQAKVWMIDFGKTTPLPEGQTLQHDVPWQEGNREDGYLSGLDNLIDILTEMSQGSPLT
# Test: Biochemical measurement of ITPKb activity (Kinase-Glo ATP depletion assay); inhibiting the phosphorylation of IP3 to IP4
# Set-up: species or system murine
# Settings: Table 1; inhibiting the phosphorylation of IP3 to IP4; read-out: IC50
# Description: Compounds of the present invention are assayed to measure their capacity to inhibit ITPKb according to the following assays.
# The DNA sequence encoding murine ITPKb residues 640-942 is amplified from a full-length construct in mammalian expression vector pKDNZ by PCR. The 3′-primer incorporates a stop codon and an overhanging PacI site. The product is digested with Pad before being ligated into the MH4 plasmid which has been prepared by digestion with PmlI and PacI. Cloning into the MH4 plasmid adds the sequence MGSDKIHHHHHH to the N-terminus of the translated region. Mutant enzymes are made by site-directed mutagenesis using the Stratagene Quikchange kit.
# ITPKb is expressed in the HK100 strain of Escherichia coli. Typically, a 4 L batch of cells is grown in LB with […] ampicillin to 0.5 A600 at 30 degrees C., before induction with 0.02% L-arabinose for 6 hours. Cells are harvested by centrifugation, and pellets are resuspended in 50 mL of 50 mM Tris (pH 8), 100 mM NaCl, 1 mM TCEP, and 0.1 mg/mL lysozyme, with 1 Complete protease inhibitor tablet (Roche). Cells are disrupted by sonication, and debris is removed by centrifugation for 40 minutes at 35000 g.
# Initial purification is performed using three nickel-Sepharose Hi-Trap HP 1 mL columns (Amersham) connected in series. After application of the pellet supernatants, the bound material is washed with 20 mM Tris (pH 8.0), 20 mM imidazole, 10% glycerol (v/v), and 1 mM TCEP before elution with an imidazole gradient up to 200 mM.
# Fractions containing ITPKb are identified by SDS-PAGE, and the pure fractions are concentrated and buffer exchanged using centriprep 20 15 kDa columns into 20 mM Tris (pH 8), 200 mM KCl, 5 mM MgCl2, 0.5 mM DTT, 10% glycerol, 1 μM IP3, and 20 μM ATP to a final protein concentration of 7 mg/mL.
# ITPKb activity is determined using the Kinase-Glo (Promega) ATP depletion assay. The assay reaction buffer consists of 50 mM Tris (pH 8.0), 100 mM NaCl, 1 mM DTT, 10% glycerol, 5 mM MgCl2, 1 μM ATP, and 10 μM IP3 (Alexis Biochemicals). 50 nl of inhibitor is then added to each 40 μL reaction followed by a 10 μL addition of purified ITPKb (final concentration of 60 nM). The reaction mixture is incubated for 60 minutes at room temperature and stopped by the addition of an equal volume of kinase-glo reagent (Promega). Luminescence is measured using a Molecular Devices Acquest instrument.
row,Structure (SMILES),IC50
1,C[C@@H]1CN(Cc2c[nH]nc2-c2ccc3cnccc3c2)CCN1c1ccc(C(F)(F)F)cn1 [Example 20],11 nM
2,C[C@@H]1CN(Cc2c[nH]nc2-c2ccc(C#N)c(=O)[nH]2)CCN1c1ccc(C(F)(F)F)cn1 [Example 21],49 nM
3,FC(F)(F)c1ccc(N2CCN(Cc3c[nH]nc3-c3cccs3)CC2)nc1 [Example 22],4320 nM
4,Cc1nc(-c2n[nH]cc2CN2CCN(c3ccc(C(F)(F)F)cn3)[C@H](C)C2)[nH]c1C [Example 25],> 10000 nM
5,C[C@@H]1CN(Cc2c[nH]nc2-c2nc3c([nH]2)CCCC3)CCN1c1ccc(C(F)(F)F)cn1 [Example 26],5010 nM
6,C[C@@H]1CN(Cc2c[nH]nc2-c2nc3cc(F)ccc3[nH]2)CCN1c1ccc(C(F)(F)F)cn1 [Example 27],9800 nM
7,C[C@@H]1CN(Cc2c[nH]nc2-c2nc3cc(C#N)ccc3[nH]2)CCN1c1ccc(C(F)(F)F)cn1 [Example 28],2450 nM
8,N#Cc1c[nH]c(-c2n[nH]cc2CN2CCN(c3ccc(C(F)(F)F)cn3)[C@H](C(F)(F)F)C2)c1 [Example 29],9 nM
9,C[C@@H]1CN(Cc2c[nH]nc2C(=O)Nc2nc[nH]c2C#N)CCN1c1ccc(C(F)(F)F)cn1 [Example 30],> 10000 nM
10,C[C@@H]1CN(Cc2c[nH]nc2C(=O)Nc2cc(-c3ccco3)n[nH]2)CCN1c1ccc(C(F)(F)F)cn1 [Example 31],5330 nM
11,Cc1cc(NC(=O)c2n[nH]cc2CN2CCN(c3ccc(C(F)(F)F)cn3)[C@H](C)C2)n(CCN(C)C)n1 [Example 32],6190 nM
12,C[C@@H]1CN(Cc2c[nH]nc2C(=O)Nc2n[nH]cc2C#N)CCN1c1ccc(C(F)(F)F)cn1 [Example 33],> 10000 nM

# Same assay, conditions: Table 2; inhibiting the phosphorylation of IP3 to IP4; read-out: IC50
row,Structure (SMILES),IC50
1,"C[C@@H]1CN(Cc2c[nH]nc2-c2cc3ccccc3[nH]2)CCN1c1ccc(C(F)(F)F)cn1 [Example 8, (R)-2-(4-((3-methyl-4-(5-(trifluoromethyl)pyridin-2-yl)piperazin-1-yl)methyl)-1H-pyrazol-3-yl)-1H-indole]",192 nM
2,"C[C@@H]1CN(Cc2c[nH]nc2C2=CCNCC2)CCN1c1ccc(C(F)(F)F)cn1 [Example 9, (R)-2-methyl-4-((3-(1,2,3,6-tetrahydropyridin-4-yl)-1H-pyrazol-4-yl)methyl)-1-(5-(trifluoromethyl)pyridin-2-yl)piperazine]",278 nM
3,"C[C@@H]1CN(Cc2c[nH]nc2C2=CCN(C=O)CC2)CCN1c1ccc(C(F)(F)F)cn1 [Example 10, (R)-4-(4-((3-methyl-4-(5-(trifluoromethyl)pyridin-2-yl)piperazin-1-yl)methyl)-1H-pyrazol-3-yl)-5,6-dihydropyridine-1(2H)-carbaldehyde]",10 nM
4,"C[C@@H]1CN(Cc2c[nH]nc2-c2nc(C(F)(F)F)c[nH]2)CCN1c1ccc(C(F)(F)F)cn1 [Example 11, (R)-2-methyl-4-((3-(4-(trifluoromethyl)-1H-imidazol-2-yl)-1H-pyrazol-4-yl)methyl)-1-(5-(trifluoromethyl)pyridin-2-yl)piperazine]",1480 nM
5,"C[C@@H]1CN(Cc2c[nH]nc2-c2nc(C(=N)N)c[nH]2)CCN1c1ccc(C(F)(F)F)cn1 [Example 12, (R)-2-(4-((3-methyl-4-(5-(trifluoromethyl)pyridin-2-yl)piperazin-1-yl)methyl)-1H-pyrazol-3-yl)-1H-imidazole-4-carboximidamide]",475 nM
6,"C[C@@H]1CN(Cc2c[nH]nc2-c2nc(C#N)c[nH]2)CCN1c1ccc(C(F)(F)F)cn1 [Example 13, (R)-2-(4-((3-methyl-4-(5-(trifluoromethyl)pyridin-2-yl)piperazin-1-yl)methyl)-1H-pyrazol-3-yl)-1H-imidazole-4-carbonitrile]",102 nM
7,"C[C@@H]1CN(Cc2c[nH]nc2-c2nc(C(N)=O)c[nH]2)CCN1c1ccc(C(F)(F)F)cn1 [Example 14, (R)-2-(4-((3-methyl-4-(5-(trifluoromethyl)pyridin-2-yl)piperazin-1-yl)methyl)-1H-pyrazol-3-yl)-1H-imidazole-4-carboxamide]",24 nM
8,"C[C@@H]1CN(Cc2c[nH]nc2-c2nc(-c3ccccc3)c[nH]2)CCN1c1ccc(C(F)(F)F)cn1 [Example 15, (R)-2-methyl-4-((3-(4-phenyl-1H-imidazol-2-yl)-1H-pyrazol-4-yl)methyl)-1-(5-(trifluoromethyl)pyridin-2-yl)piperazine]",1230 nM
9,"C[C@@H]1CN(Cc2c[nH]nc2-c2nc3cnccc3[nH]2)CCN1c1ccc(C(F)(F)F)cn1 [Example 16, (R)-2-(4-((3-methyl-4-(5-(trifluoromethyl)pyridin-2-yl)piperazin-1-yl)methyl)-1H-pyrazol-3-yl)-1H-imidazo[4,5-c]pyridine]",975 nM
10,"C[C@@H]1CN(Cc2c[nH]nc2C=C2NC(=O)NC2=O)CCN1c1ccc(C(F)(F)F)cn1 [Example 17, R-5-((4-((3-methyl-4-(5-(trifluoromethyl)pyridin-2-yl)piperazin-1-yl)methyl)-1H-pyrazol-3-yl)methylene)imidazolidine-2,4-dione]",531 nM
11,"C[C@@H]1CN(Cc2c[nH]nc2C(=O)Nc2ccncc2)CCN1c1ccc(C(F)(F)F)cn1 [Example 18, (R)-4-((3-methyl-4-(5-(trifluoromethyl)pyridin-2-yl)piperazin-1-yl)methyl)-N-(pyridin-4-yl)-1H-pyrazole-3-carboxamide]",449 nM
12,"C[C@@H]1CN(Cc2n[nH]nc2-c2ccc(C#N)cc2)CCN1c1ccc(C(F)(F)F)cc1 [Example 19, (R)-4-(5-((3-methyl-4-(4-(trifluoromethyl)phenyl)piperazin-1-yl)methyl)-2H-1,2,3-triazol-4-yl)benzonitrile]",40 nM

# Same assay, conditions: read-out: IC50 in inhibiting the phosphorylation of IP3 to IP4
row,Structure (SMILES),IC50
1,"C[C@@H]1CN(Cc2c[nH]nc2-c2cc(C#N)c[nH]2)CCN1c1ccc(C(F)(F)F)cn1 [Example 1, (R)-5-(4-((3-methyl-4-(5-(trifluoromethyl)pyridin-2-yl)piperazin-1-yl)methyl)-1H-pyrazol-3-yl)-1H-pyrrole-3-carbonitrile]",9 nM
2,"C[C@@H]1CN(Cc2c[nH]nc2-c2cc(C(N)=O)c[nH]2)CCN1c1ccc(C(F)(F)F)cn1 [Example 2, (R)-5-(4-((3-methyl-4-(5-(trifluoromethyl)pyridin-2-yl)piperazin-1-yl)methyl)-1H-pyrazol-3-yl)-1H-pyrrole-3-carboxamide]",3 nM
3,"CNC(=O)c1c[nH]c(-c2n[nH]cc2CN2CCN(c3ccc(C(F)(F)F)cn3)[C@H](C)C2)c1 [Example 3, (R)—N-methyl-5-(4-((3-methyl-4-(5-(trifluoromethyl)pyridin-2-yl)piperazin-1-yl)methyl)-1H-pyrazol-3-yl)-1H-pyrrole-3-carboxamide]",11 nM
4,"C[C@@H]1CN(Cc2c[nH]nc2-c2ccc(C#N)[nH]2)CCN1c1ccc(C(F)(F)F)cn1 [Example 4, (R)-5-(4-((3-methyl-4-(5-(trifluoromethyl)pyridin-2-yl)piperazin-1-yl)methyl)-1H-pyrazol-3-yl)-1H-pyrrole-2-carbonitrile]",81 nM
5,"C[C@@H]1CN(Cc2c[nH]nc2-c2ccc(C(N)=O)[nH]2)CCN1c1ccc(C(F)(F)F)cn1 [Example 5, (R)-5-(4-((3-methyl-4-(5-(trifluoromethyl)pyridin-2-yl)piperazin-1-yl)methyl)-1H-pyrazol-3-yl)-1H-pyrrole-2-carboxamide]",28 nM
6,"C[C@@H]1CN(Cc2c[nH]nc2-c2c[nH]c(C#N)c2)CCN1c1ccc(C(F)(F)F)cn1 [Example 6, (R)-4-(4-((3-methyl-4-(5-(trifluoromethyl)pyridin-2-yl)piperazin-1-yl)methyl)-1H-pyrazol-3-yl)-1H-pyrrole-2-carbonitrile]",6 nM
7,"C[C@@H]1CN(Cc2c[nH]nc2-c2c[nH]c(C(N)=O)c2)CCN1c1ccc(C(F)(F)F)cn1 [Example 7, (R)-4-(4-((3-methyl-4-(5-(trifluoromethyl)pyridin-2-yl)piperazin-1-yl)methyl)-1H-pyrazol-3-yl)-1H-pyrrole-2-carboxamide]",2 nM
